Data on twelve compounds can be found in patent US11986471B2, “Compounds and methods of use” (Tango Therapeutics, Inc., priority 2018, dated 2024).

Where only a bound is given, the exact number is not on record here.

Assay [1] concerns HAP1 MTAP-deleted. Kind of assay: SDMA in-cell western assay, HAP1 MTAP-deleted cell line. The assay is classed as cell-based. The following applies: for IC50: Homo sapiens, HAP1 MTAP-deleted cell line; for MTAP Intact/Deleted Ratio: IC50 ratio HAP1 MTAP-intact / HAP1 MTAP-deleted. The method, boiled down:
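MTAP-null HAP1 cells, the deleted member of an isogenic pair with endogenously MTAP-expressing HAP1, are treated with compound. SDMA is then quantified by in-cell western and an IC50 is calculated.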

For assay [2], the target named is T1, PRMT5 (Homo sapiens, UniProt O14744).
T1 construct: purchased Viva (custom protein)
In words: PRMT5 IC50 assay with no cofactor. The assay is classed as biochemical. The method, boiled down: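 Enzyme: human PRMT5. Conditions: plus SAM, plus MTA, or cofactor-free. Output: IC50 (μM); Ki via IC50/1.5 (SAM) or IC50/13.5 (MTA).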

For assay [3], the target named is T1, PRMT5. In words: PRMT5 IC50 assay in the presence of SAM as cofactor. The assay is classed as biochemical. The method, boiled down: (§1)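 Each compound is tested on PRMT5 in the presence of SAM, of MTA, and without any cofactor. Ki values are then back-calculated using fixed factors of 1.5 (SAM) and 13.5 (MTA), and the two Ki values are compared as a ratio.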
In assay [4] the test system is HAP1 MTAP-intact. In words: SDMA in-cell western assay, HAP1 MTAP-intact cell line. The assay is classed as cell-based. Particulars: Homo sapiens. The method, boiled down: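 Cells from two matched HAP1 lines, MTAP-null and MTAP-expressing at endogenous levels, are treated with compound. SDMA is then quantified by in-cell western and an IC50 is calculated for each line.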

The target of assay [5] is T1, PRMT5. In words: PRMT5 IC50 assay in the presence of MTA as cofactor. The assay is classed as biochemical. Particulars: for IC50: PRMT5, MTA as cofactor; for SAM/MTA Ratio: ratio between the Ki in the presence of SAM and the Ki in the presence of MTA. In outline: as §1

T1 sequence (O14744 whole entry): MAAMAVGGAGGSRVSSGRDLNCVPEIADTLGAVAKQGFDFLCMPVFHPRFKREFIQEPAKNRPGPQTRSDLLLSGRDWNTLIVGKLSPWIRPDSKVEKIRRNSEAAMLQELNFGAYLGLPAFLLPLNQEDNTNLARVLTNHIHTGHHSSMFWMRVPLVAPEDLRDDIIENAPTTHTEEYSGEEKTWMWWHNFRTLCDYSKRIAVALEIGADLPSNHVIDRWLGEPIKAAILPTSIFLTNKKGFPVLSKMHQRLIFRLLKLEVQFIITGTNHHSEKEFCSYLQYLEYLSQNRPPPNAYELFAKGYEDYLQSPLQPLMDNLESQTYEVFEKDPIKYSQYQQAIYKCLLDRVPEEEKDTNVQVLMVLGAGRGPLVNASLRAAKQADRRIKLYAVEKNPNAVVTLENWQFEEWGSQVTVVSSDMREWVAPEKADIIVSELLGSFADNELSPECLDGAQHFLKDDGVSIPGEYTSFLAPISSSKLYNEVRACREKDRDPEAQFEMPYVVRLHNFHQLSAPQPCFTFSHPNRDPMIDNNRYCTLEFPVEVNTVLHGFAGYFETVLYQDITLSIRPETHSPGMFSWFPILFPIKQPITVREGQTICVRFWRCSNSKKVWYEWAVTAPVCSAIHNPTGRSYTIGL
T1 sequence (Q9BQA1 whole entry partner): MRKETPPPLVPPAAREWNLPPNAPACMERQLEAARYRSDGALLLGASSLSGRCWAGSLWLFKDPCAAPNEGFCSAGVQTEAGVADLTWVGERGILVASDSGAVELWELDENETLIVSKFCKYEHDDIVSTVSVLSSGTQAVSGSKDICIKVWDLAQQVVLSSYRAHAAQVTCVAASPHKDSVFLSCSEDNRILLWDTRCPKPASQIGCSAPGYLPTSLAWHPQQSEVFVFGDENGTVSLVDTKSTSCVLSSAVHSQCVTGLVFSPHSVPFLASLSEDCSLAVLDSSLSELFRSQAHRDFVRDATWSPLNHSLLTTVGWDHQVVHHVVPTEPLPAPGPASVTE

As a reminder, the IC50 is the point on the concentration scale where inhibition reaches its midpoint. In the case of `Cc1ncoc1COc1ccc2c(c1)CCN(C[C@@H](O)CNC(=O)c1cc(NC3CCC3)ccn1)C2` [Compound 516, 4-(cyclobutylamino)-N-[(2S)-2-hydroxy-3-(6-[(4-methyl-1,3-oxazol-5-yl)methoxy]-1,2,3,4-tetrahydroisoquinolin-2-yl}propyl]pyridine-2-carboxamide], the IC50 in assay [1] was under 1000 nM; in assay [2] it was 500 to 5000 nM; in assay [3], 50 to 500 nM; in assay [4], under 1000 nM; in assay [5], 50 to 500 nM. Further, in assay [1], the “MTAP Intact/Deleted Ratio” value is “C* (an IC50 ratio of less than 3 fold between the IC50 in the HAP1 MTAP-intact cell line and the HAP1 MTAP-deleted cell line)”. Also, the “SAM/MTA Ratio” value in assay [5] is “A (a Ki ratio greater than or equal to 10 fold between the Ki in the presence of SAM and the Ki in the presence of MTA)”.

As to `CC(=O)N1CCC(Nc2cc(C(=O)NC[C@H](O)CN3CCc4c(ccc(OCc5cnco5)c4C)C3)ccn2)CC1` [Compound 517], the IC50 in assay [1] was 1000 to 10000 nM; in assay [2], 500 to 5000 nM; in assay [3] it was 50 to 500 nM; in assay [4], at least 10000 nM; in assay [5] it was 50 to 500 nM. For the same compound, in assay [1], the “MTAP Intact/Deleted Ratio” value was “B* (an IC50 ratio greater than or equal to 3 fold but lower than 10 fold between the IC50 in the HAP1 MTAP-intact cell line and the HAP1 MTAP-deleted cell line)”. Moreover, the “SAM/MTA Ratio” value in assay [5] is “A (a Ki ratio greater than or equal to 10 fold between the Ki in the presence of SAM and the Ki in the presence of MTA)”.

With `Cc1c(OCc2cnco2)ccc2c1CCN(C[C@@H](O)CNC(=O)c1cc(NC3CCN(C(=O)C(C)C)CC3)ncn1)C2` [Compound 520, N-[(2S)-2-hydroxy-3-{5-methyl-6-[(1,3-oxazol-5-yl)methoxy]-1,2,3,4-tetrahydroisoquinolin-2-yl}propyl]-6-{[1-(2-methylpropanoyl)piperidin-4-yl]amino}pyrimidine-4-carboxamide], the IC50 in assay [1] was 1000 to 10000 nM; in assay [2], at least 5000 nM; in assay [3], 50 to 500 nM; in assay [4] it was at least 10000 nM; in assay [5], 50 to 500 nM. Moreover, in assay [1], the “MTAP Intact/Deleted Ratio” value was “B* (an IC50 ratio greater than or equal to 3 fold but lower than 10 fold between the IC50 in the HAP1 MTAP-intact cell line and the HAP1 MTAP-deleted cell line)”. In addition, the “SAM/MTA Ratio” value in assay [5] was “A (a Ki ratio greater than or equal to 10 fold between the Ki in the presence of SAM and the Ki in the presence of MTA)”.

Turning to `Cc1c(OCc2cnco2)ccc2c1CCN(C[C@@H](O)CNC(=O)c1ccnc(NC3CN(C(=O)CC(C)C)C3)c1)C2` [Compound 522, (S)—N-(2-hydroxy-3-(5-methyl-6-(oxazol-5-ylmethoxy)-3N-dihydroisoquinolin-2(1H)-yl)propyl)-2-((1-(3-methylbutanoyl)azetidin-3-yl)amino)isonicotinamide], the IC50 was at least 10000 nM in assay [1]; at least 5000 nM in assay [2]; 50 to 500 nM in assay [3]; at least 10000 nM in assay [4]; 50 to 500 nM in assay [5]. In assay [1], the “MTAP Intact/Deleted Ratio” value is “C* (an IC50 ratio of less than 3 fold between the IC50 in the HAP1 MTAP-intact cell line and the HAP1 MTAP-deleted cell line)”. In assay [5], the “SAM/MTA Ratio” value was “A (a Ki ratio greater than or equal to 10 fold between the Ki in the presence of SAM and the Ki in the presence of MTA)”.

Regarding `Cc1c(OCc2cnco2)ccc2c1CCN(C[C@@H](O)CNC(=O)c1cc(NC3CCN(C(=O)C(C)(C)C)CC3)ncn1)C2` [Compound 523, 6-{[1-(2,2-dimethylpropanoyl)piperidin-4-yl]amino}-N-[(2S)-2-hydroxy-3-{5-methyl-6-[(1,3-oxazol-5-yl)methoxy]-1,2,3,4-tetrahydroisoquinolin-2-yl}propyl]pyrimidine-4-carboxamide], the IC50 in assay [1] was at least 10000 nM; in assay [2] it was at least 5000 nM; in assay [3] it was 50 to 500 nM; in assay [4] it was at least 10000 nM; in assay [5], 50 to 500 nM. Besides, the “MTAP Intact/Deleted Ratio” value in assay [1] was “C* (an IC50 ratio of less than 3 fold between the IC50 in the HAP1 MTAP-intact cell line and the HAP1 MTAP-deleted cell line)”. In assay [5], the “SAM/MTA Ratio” value was “A (a Ki ratio greater than or equal to 10 fold between the Ki in the presence of SAM and the Ki in the presence of MTA)”.

On to `CC(=O)N1CCC(Nc2cccc(C(=O)NC[C@H](O)CN3CCc4cc(OCc5cnco5)ccc4C3)c2)CC1` [Compound 527], for which the IC50 is 1000 to 10000 nM in assay [1]; 500 to 5000 nM in assay [2]; 50 to 500 nM in assay [3]; at least 10000 nM in assay [4]; 50 to 500 nM in assay [5]. In addition, the “MTAP Intact/Deleted Ratio” value in assay [1] is “B* (an IC50 ratio greater than or equal to 3 fold but lower than 10 fold between the IC50 in the HAP1 MTAP-intact cell line and the HAP1 MTAP-deleted cell line)”. In addition, the “SAM/MTA Ratio” value in assay [5] was “A (a Ki ratio greater than or equal to 10 fold between the Ki in the presence of SAM and the Ki in the presence of MTA)”.

Turning to `Cc1c(OCc2cnco2)ccc2c1CCN(C[C@@H](O)CNC(=O)c1cc(NC3CCN(C(=O)CC(C)C)CC3)ncn1)C2` [Compound 528], the IC50 in assay [1] was 1000 to 10000 nM; in assay [2], 500 to 5000 nM; in assay [3] it was 50 to 500 nM; in assay [4], at least 10000 nM; in assay [5] it was 50 to 500 nM. Also, in assay [1], the “MTAP Intact/Deleted Ratio” value was “C* (an IC50 ratio of less than 3 fold between the IC50 in the HAP1 MTAP-intact cell line and the HAP1 MTAP-deleted cell line)”. The “SAM/MTA Ratio” value in assay [5] is “A (a Ki ratio greater than or equal to 10 fold between the Ki in the presence of SAM and the Ki in the presence of MTA)”.

As for `CC(=O)N1CCC(Nc2cccc(C(=O)NC[C@H](O)CN3CCc4c(ccc(OCc5cnco5)c4C)C3)c2)CC1` [Compound 529, 3-[(1-acetylpiperidin-4-yl)amino]-N-[(2S)-2-hydroxy-3-{5-methyl-6-[(1,3-oxazol-5-yl)methoxy]-1,2,3,4-tetrahydroisoquinolin-2-yl}propyl]benzamide], the IC50 was 1000 to 10000 nM in assay [1]; 500 to 5000 nM in assay [2]; 50 to 500 nM in assay [3]; at least 10000 nM in assay [4]; 50 to 500 nM in assay [5]. For the same compound, the “MTAP Intact/Deleted Ratio” value in assay [1] was “B* (an IC50 ratio greater than or equal to 3 fold but lower than 10 fold between the IC50 in the HAP1 MTAP-intact cell line and the HAP1 MTAP-deleted cell line)”. Moreover, the “SAM/MTA Ratio” value in assay [5] is “A (a Ki ratio greater than or equal to 10 fold between the Ki in the presence of SAM and the Ki in the presence of MTA)”.

In the case of `Cc1ncoc1COc1ccc2c(c1C)CCN(C[C@@H](O)CNC(=O)c1ccc3c(c1)CCN(C(=O)c1ccc(Br)cc1)C3)C2` [Compound 530], the IC50 in assay [1] was at least 10000 nM; in assay [2] it was at least 5000 nM; in assay [3] it was 50 to 500 nM; in assay [4], at least 10000 nM; in assay [5], 50 to 500 nM. For the same compound, the “MTAP Intact/Deleted Ratio” value in assay [1] is “C* (an IC50 ratio of less than 3 fold between the IC50 in the HAP1 MTAP-intact cell line and the HAP1 MTAP-deleted cell line)”. Further, the “SAM/MTA Ratio” value in assay [5] is “A (a Ki ratio greater than or equal to 10 fold between the Ki in the presence of SAM and the Ki in the presence of MTA)”.

With `CC(=O)N1CC(Nc2cc(C(=O)NC[C@H](O)CN3CCc4c(ccc(OCc5cnco5)c4Cl)C3)nc(N3CCCCC3)n2)C1` [Compound 532], the IC50 was under 1000 nM in assay [1]; 500 to 5000 nM in assay [2]; 50 to 500 nM in assay [3]; at least 10000 nM in assay [4]; 50 to 500 nM in assay [5]. The “MTAP Intact/Deleted Ratio” value in assay [1] was “A* (an IC50 ratio greater than or equal to 10 fold between the IC50 in the HAP1 MTAP-intact cell line and the HAP1 MTAP-deleted cell line)”. For the same compound, the “SAM/MTA Ratio” value in assay [5] is “A (a Ki ratio greater than or equal to 10 fold between the Ki in the presence of SAM and the Ki in the presence of MTA)”.

With `COc1ccc(C(=O)N2CCc3cc(C(=O)NC[C@H](O)CN4CCc5c(ccc(OCc6ocnc6C)c5C)C4)ccc3C2)cc1` [Compound 533, N-[(2S)-2-hydroxy-3-{5-methyl-6-[(4-methyl-1,3-oxazol-5-yl)methoxy]-1,2,3,4-tetrahydroisoquinolin-2-yl}propyl]-2-(4-methoxybenzoyl)-1,2,3,4-tetrahydroisoquinoline-6-carboxamide], the IC50 in assay [1] is 1000 to 10000 nM; in assay [2], at least 5000 nM; in assay [3], 50 to 500 nM; in assay [4], at least 10000 nM; in assay [5], 50 to 500 nM. The “MTAP Intact/Deleted Ratio” value in assay [1] is “C* (an IC50 ratio of less than 3 fold between the IC50 in the HAP1 MTAP-intact cell line and the HAP1 MTAP-deleted cell line)”. The “SAM/MTA Ratio” value in assay [5] is “A (a Ki ratio greater than or equal to 10 fold between the Ki in the presence of SAM and the Ki in the presence of MTA)”.

As for `CC(=O)N1CC(Nc2cc(C(=O)NC[C@H](O)CN3CCc4cc(OCc5ocnc5C)ccc4C3)nc(N3CCCCC3)n2)C1` [Compound 534, 6-[(1-acetylazetidin-3-yl)amino]-N-[(2S)-2-hydroxy-3-{6-[(4-methyl-1,3-oxazol-5-yl)methoxy]-1,2,3,4-tetrahydroisoquinolin-2-yl}propyl]-2-(piperidin-1-yl)pyrimidine-4-carboxamide], the IC50 was under 1000 nM in assay [1]; 500 to 5000 nM in assay [2]; 50 to 500 nM in assay [3]; 1000 to 10000 nM in assay [4]; under 50 nM in assay [5]. The “MTAP Intact/Deleted Ratio” value in assay [1] is “A* (an IC50 ratio greater than or equal to 10 fold between the IC50 in the HAP1 MTAP-intact cell line and the HAP1 MTAP-deleted cell line)”. Also, in assay [5], the “SAM/MTA Ratio” value is “A (a Ki ratio greater than or equal to 10 fold between the Ki in the presence of SAM and the Ki in the presence of MTA)”.
